In assay [1] the test system is MCP-1 secretion by endothelial cells (HAEC and HMVEC). Put plainly: AGE-induced inflammatory response determined by MCP-1 ELISA. The class given is cell-based, human. The following applies: 100 ng/ml TNFα or 300 μg/ml G-HSA, 24 hrs, vs control medium (FIG. 2). (In general: In an ELISA, binding on a coated surface is turned into a signal by an enzyme label.)
Description: HAEC and HMVEC (Clonetics) were cultured and subcultured according to manufacturer in growth medium (Clonetics): basal medium containing hEGF, hydrocortisone, VEGF, HFGF-B (with heparin), long R3-IGF-1, ascorbic acid, gentamicin/amphotericin and 5% FBS. These cells were allowed to reach >90% confluency before being subjected to experimental treatments.
Cells were treated with control medium or medium containing 100 ng/ml TNFα or 300 μg/ml G-HSA for 24 hrs. All treatments and controls were carried out in serum free media containing 0.2% albumin. Following treatment, media were collected and used for the MCP-1 ELISA.
MCP-1 ELISA was carried out using a DuoSet ELISA Development System for Human MCP-1 as described by the manufacturer (R&D Systems). 2 ug/ml of mouse anti-human MCP-1 was used as the capture antibody and 100 ng/ml biotinylated goat anti-human MCP-1 was used as the detection antibody. The culture media were incubated with capture antibody for 2 h at room temperature in 96-well plates. The wells were washed three times with wash buffer (0.05% Tween-20 in phosphate buffered saline (PBS) pH 7.4) followed by incubation with detection antibody for 2 h at room temperature. Color development was read at 450 nm in a microplate reader.
Assay [2] relates to IL-6 secretion by endothelial cells (HMVEC). Put plainly: AGE-induced inflammatory response determined by IL-6 ELISA. The following applies: 24 hrs. The class given is cell-based, human.
Description: These cell were allowed to reach >90% confluency before being subjected to experimental treatments. G-HSA was from US Biologicals. Tumor necrosis factor α (TNFα) was from R&D Systems.
HMVEC were treated with control medium or medium containing 100 ng/ml TNFα or 300 μg/ml G-HSA for 24 hrs. All treatments and controls were carried out in serum free media containing 0.2% albumin. Following treatment, cell media were collected and used for an IL-6 ELISA.
The IL-6 ELISA was carried out using human IL-6 DuoSet ELISA development kit as described by manufacturer (R&D Systems). Mouse anti-human IL-6 was used as the capture antibody (2 μg/ml) and biotinylated goat anti-human IL6 (200 ng/ml) was used as the detection antibody. The culture media were incubated with capture antibody for 2 h at room temperature in 96-well plates. The wells were washed three times with wash buffer (0.05% Tween-20 in phosphate buffered saline (PBS) pH 7.4) followed by incubation with detection antibody for 2 h at room temperature. Following three washes, the wells were incubated with Streptavidin-HRP for 20 min. Color development was read at 450 nm in a microplate reader.

The results in this text go back to patent US7273712B2, “Methods and compositions for detecting compounds that modulate inflammatory responses” (Reddy US Therapeutics, Inc., priority 2000, dated 2007).

Turning to Tumor necrosis factor α [TNFα], the “increase in MCP-1 secretion” value in assay [1] is 540%. In assay [2] (100 ng/ml TNFα or 300 μg/ml G-HSA, HMVEC, vs control medium (FIG. 1)), the “increase in IL-6 secretion” value came to 147%. Besides, the “increase in IL-6 secretion by endothelial cells” value in assay [2] (100 ng/ml TNFα, serum free media containing 0.2% albumin, vs control medium) is “greater than 2 fold”.
